Reference: US20050163848A1 (priority 2003, published 2005)
Read-outs that look alike come from different tables or passages of the source.

Tests used:
colonic segments = experiment: Macroscopic observation of excised colonic segments for irritation; assay type: in vivo; conditions: rats, 4 hour after intracolonic bolus 10 mg/rat
[1] = rats; for AUC∞: time zero to infinity, based on 1 mg gabapentin/rat
[2] = rats, normalized to 1 mg gabapentin/kg
in vivo = conditions: male, Sprague-Dawley, rat, plasma
[3] = n-octanol/0.05M phosphate buffer, pH 7.4; cited from earlier work
[4] = in water and in both basic and acidic aqueous solutions; cited from earlier work

SMILES	histopathological change of colonic mucosa visible to the naked eye (colonic segments)	AUC∞ ([1]; colonic intubation 10 mg/rat)	AUC∞ ([1]; iv 1 mg/rat)	absorption after intracolonic bolus ([1]; ligated colon, 10 mg/rat, FIG. 5)	AUC (0~4 h) ([2]; duodenal, dose 14.8 ± 0.1 mg/kg)	AUC (0~4 h) ([2]; duodenal, dose 30.6 ± 1.7 mg/kg)	AUC (0~4 h) ([2]; duodenal, dose 59.8 ± 1.7 mg/kg)	AUC (0~4 h) ([2]; iv, dose 1 mg/kg, hour 4 point assumes log-linear decline)	bioavailability (in vivo; iv, 1 mg/rat)	bioavailability (in vivo; other: intracolonic bolus into the ligated colon, 10 mg/rat)	log of the partition coefficient [3]	solubility [4]
CCCCCCCCCCCCOS(=O)(=O)O.NCC1(CC(=O)O)CCCCC1 [gabapentin lauryl sulfate complex]	no histopathological change visible to the naked eye											
NCC1(CC(=O)O)CCCCC1 [gabapentin, 1-(aminomethyl)cyclohexaneacetic acid]	no histopathological change visible to the naked eye	301.4 ng · h/mL-mg	6090.3 ng · h/mL-mg	slow absorption	1705.2 ± 257.2 ng·h/mL/mg	1205.7 ± 276.3 ng·h/mL/mg	726.1 ± 223.9 ng·h/mL/mg	2727.1 ± 259.1 ng·h/mL/mg	100%	4.9%	−1.25	freely soluble
